According to patent publication US20070032477A1, “Pteridine derivatives useful for making pharmaceutical compositions” (priority 2003, published 2007):

Columns and labels:
[1] = system: mixed lymphocyte reaction (PBMC with allogeneic PBMC or Eppstein-Barr Virus-transformed human B cells as stimulator cells); assay: Mixed lymphocyte reaction (MLR) assay; format: cell-based; settings: lowest concentration giving 50% suppression of the MLR; [3H]-thymidine
[2] = system: production of TNF-α by PBMC in response to stimulation by LPS; assay: TNF-α assay; format: cell-based, human; settings: LPS 1 μg/ml, 72 hours, sandwich ELISA
In short: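 Cells were LPS-stimulated (1 μg/ml final) peripheral blood mononuclear cells at 10^6/ml, exposed 72 h at 37 °C to 0.1, 1 or 10 μM test compound.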

[3] = system: production of IL-1 β by PBMC in response to stimulation by LPS; assay: IL-1 β assay; format: cell-based, human; settings: LPS 1 μg/ml, 72 hours, sandwich ELISA
In short: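 IL-1β release was measured by sandwich ELISA (450 nm, standard curve, pg/ml) and expressed as % suppression. Density-gradient-isolated PBMC at 10^6 cells/ml received LPS at 1 μg/ml plus test compound at 0.1 μM, 1 μM or 10 μM, incubated 72 h at 37 °C.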

Structure (SMILES)	IC50 [1]	IC50 [2]	IC50 [3]
COc1ccc(-c2cnc3nc(N)nc(N4CCN(C(=O)COc5ccccc5)CC4)c3n2)cc1OC [Example 17, 2-amino-4-[(N-phenoxyacetyl)-piperazin-1-yl]-6-(3,4-dimethoxy-phenyl)pteridine]	3.8 nM	80 nM	2800 nM
COc1ccc(-c2cnc3nc(N)nc(N4CCN(c5ccc(C)cc5)CC4)c3n2)cc1OC [Example 176, 2-amino-6-(3,4-dimethoxyphenyl)-4-((4-methylphenyl)-piperazin-1-yl)pteridine]	300 nM	< 10 nM	4900 nM
